What was measured:
CA3 mossy fiber synapses = assay: Mossy fiber-CA3 extracellular recordings of fEPSPs in hippocampal slices; design: species or system mouse
Excerpt: Hippocampal slices from five- to six-month-old ST8Sia-II-deficient mice and their wild-type littermates were used for recordings. After halothane anesthesia, decapitation and removal of the brain, the hippocampi were cut with a VT 1000M vibratome (Leica, Nussloch, Germany) in slices 300 μm thick in ice-cold artificial cerebrospinal fluid (ACSF) containing (in mM): 250 sucrose, 25 NaHCO3, 25 glucose, 2.5 KCl, 1.25 NaH2PO4, 2 CaCl2, and 1.5 MgCl2, pH 7.3. […]
The LTP-inducing high-frequency stimulation (HFS) consisted of one train of stimuli applied at 100 Hz during 1 sec once (“weak” stimulation protocol) or repeated four times with an interval of 20 sec (“strong” stimulation protocol). […] To additionally confirm that the fEPSPs recorded were evoked by the stimulation of mossy fibers and not by the associational/commissural pathway, an agonist of type II metabotropic glutamate receptors (L-CCG1, 10 μM; Tocris), which is known to reduce synaptic transmission in CA3 mossy fiber synapses (Manzoni, et al. Neuropharmacology (1995) 34:965-71), was applied at the end of each experiment. […] Basal synaptic transmission was monitored at 0.033 Hz. The mean amplitude of fEPSPs recorded 0-10 min before HFS was taken as 100%. Post-tetanic potentiation (PTP) was calculated as the maximal increase in the amplitude of fEPSP after HFS. […]

[1] = test system: cell surface membrane resialylation; conditions: compounds that affect intracellular pools of CTP; cited from earlier work
cultured neurons = conditions: acts as chain terminator after conversion to unnatural sialic acid derivative; cited from earlier work

SMILES | cell surface membrane resialylation [1] | also measured
NC(CCCP(=O)(O)O)C(=O)O (stereo not drawn) [AP-5] | – | effect on the amplitude of recorded fEPSPs (CA3 mossy fiber synapses; AP-5 50 μM, wild-type or ST8Sia-II deficient samples): did not affect the amplitude
N[C@H](C(=O)O)[C@@H]1CC(Cl)=NO1 [acivicin] | curtail | –
N[C@H](C(=O)O)[C@H]1C[C@@H]1C(=O)O [L-CCG1] | – | reduction of the amplitude of fEPSPs (CA3 mossy fiber synapses; L-CCG1 10 μM at end of experiment, similarly in both genotypes (wild-type and ST8Sia-II deficient)): 80%
Nc1ccn([C@@H]2O[C@H](CO)[C@@H](O)[C@@H]2O)c(=O)n1 [1-beta-D-arabinofuranosylcytosine] | curtail | –
O=C1C=CN([C@@H]2O[C@H](CO)[C@@H](O)[C@H]2O)C(=O)C1 [3-deazauridine] | curtail | –
CCCC(=O)N[C@@H]1C(O)O[C@H](CO)[C@@H](O)[C@@H]1O (stereo partly drawn) [N-butanoylmannosiamine] | – | PSA expression on cultured neurons (cultured neurons): inhibit PSA expression

Reference: US20070142319A1, “Anxiolytic treatment by inhibition of a polysialyltransferase” (The Burnham Institute, priority 2004, published 2007)
